Data: PubChem BioAssay AID1745844 (Carcinogenic Potency Database (CPDB), 2022)
Where “and” joins values, the source holds several entries; their conditions need not be identical. Equal entries are not always repeated. Calls of active or inactive are those of the source. How the calls were made is not given here.

Test system: rodent lifetime carcinogenesis bioassay, tumor incidence TD50
Experiment: chronic cancer bioassays in animals – CPDB, compiled studies (AID 1745844)
Conditions: rat

ClCCl
carcinogen call (strain Fischer 344, females, in drinking water, site: liver, lesion: hepatocellular carcinoma, dosed 78 weeks, study length 104 weeks): negative (inactive) | TD50 (strain Fischer 344, females, in drinking water, site: liver, lesion: hepatocellular carcinoma, dosed 104 weeks, study length 104 weeks): 3630 mg/kg/day (inactive) | carcinogen call (strain Fischer 344, females, in drinking water, site: liver, lesion: neoplastic nodule, dosed 78 weeks, study length 78 weeks): negative (inactive) | TD50 (strain Fischer 344, females, in drinking water, site: liver, lesion: neoplastic nodule, dosed 78 weeks, study length 104 weeks): 1540 mg/kg/day (inactive) | TD50 (strain Fischer 344, females, in drinking water, site: liver, lesion: neoplastic nodule, dosed 104 weeks, study length 104 weeks): 2340 mg/kg/day (inactive) | TD50 (strain Fischer 344, females, in drinking water, site: liver, lesion: several types, types named in the paper, dosed 78 weeks, study length 104 weeks): 1540 mg/kg/day (inactive) | TD50 (strain Fischer 344, females, in drinking water, site: liver, lesion: several types, types named in the paper, dosed 104 weeks, study length 104 weeks): 1430 mg/kg/day (inactive) | TD50 (strain Fischer 344, females, inhaled, site: all sites, lesion: mononuclear-cell leukemia, dosed 102 weeks, study length 104 weeks): 1280 mg/kg/day | TD50 (strain Fischer 344, females, inhaled, site: any site (literature study), lesion: several types, types named in the paper, dosed 102 weeks, study length 104 weeks): 501 mg/kg/day | TD50 (strain Fischer 344, females, inhaled, site: liver, lesion: hepatocellular adenoma + hepatocellular carcinoma + neoplastic nodule, dosed 102 weeks, study length 104 weeks): 4270 mg/kg/day | TD50 (strain Fischer 344, females, inhaled, site: liver, lesion: hepatocellular carcinoma + neoplastic nodule, dosed 102 weeks, study length 104 weeks): 4270 mg/kg/day | TD50 (strain Fischer 344, females, inhaled, site: mammary gland, lesion: adenocarcinoma, NOS + adenoma, NOS + fibroadenoma + mixed tumor, malignant, dosed 102 weeks, study length 104 weeks): 670 mg/kg/day | TD50 (strain Fischer 344, females, inhaled, site: mammary gland, lesion: adenocarcinoma, NOS + adenoma, NOS + fibroadenoma, dosed 102 weeks, study length 104 weeks): 630 mg/kg/day | TD50 (strain Fischer 344, females, inhaled, site: mammary gland, lesion: adenoma, NOS + fibroadenoma, dosed 102 weeks, study length 104 weeks): 598 mg/kg/day | TD50 (strain Fischer 344, females, inhaled, site: mammary gland, lesion: fibroadenoma, dosed 102 weeks, study length 104 weeks): 632 mg/kg/day | carcinogen call (strain Fischer 344, males, in drinking water, site: liver, lesion: hepatocellular carcinoma, dosed 78 weeks, study length 104 weeks): negative (inactive) | carcinogen call (strain Fischer 344, males, in drinking water, site: liver, lesion: hepatocellular carcinoma, dosed 104 weeks, study length 104 weeks): negative (inactive) | carcinogen call (strain Fischer 344, males, in drinking water, site: liver, lesion: neoplastic nodule, dosed 78 weeks, study length 78 weeks): negative (inactive) | TD50 (strain Fischer 344, males, in drinking water, site: liver, lesion: neoplastic nodule, dosed 78 weeks, study length 104 weeks): 1610 mg/kg/day (inactive) | carcinogen call (strain Fischer 344, males, in drinking water, site: liver, lesion: neoplastic nodule, dosed 104 weeks, study length 104 weeks): negative (inactive) | TD50 (strain Fischer 344, males, in drinking water, site: liver, lesion: several types, types named in the paper, dosed 78 weeks, study length 104 weeks): 3660 mg/kg/day (inactive) | carcinogen call (strain Fischer 344, males, in drinking water, site: liver, lesion: several types, types named in the paper, dosed 104 weeks, study length 104 weeks): negative (inactive) | TD50 (strain Fischer 344, males, inhaled, site: any site (literature study), lesion: several types, types named in the paper, dosed 102 weeks, study length 104 weeks): 539 mg/kg/day | TD50 (strain Fischer 344, males, inhaled, site: mammary gland + subcutaneous tissue, lesion: adenoma, NOS + fibroadenoma + fibroma, dosed 102 weeks, study length 104 weeks): 917 mg/kg/day | TD50 (strain Fischer 344, males, inhaled, site: mammary gland, lesion: adenoma, NOS + fibroadenoma, dosed 102 weeks, study length 104 weeks): 1640 mg/kg/day | TD50 (strain Fischer 344, males, inhaled, site: mammary gland, lesion: fibroadenoma, dosed 102 weeks, study length 104 weeks): 1770 mg/kg/day | TD50 (strain Fischer 344, males, inhaled, site: multiple organs + tunica vaginalis, lesion: mesothelioma, NOS + mesothelioma, malignant, dosed 102 weeks, study length 104 weeks): 1440 mg/kg/day | TD50 (strain Fischer 344, males, inhaled, site: subcutaneous tissue, lesion: fibroma + sarcoma, NOS, dosed 102 weeks, study length 104 weeks): 1990 mg/kg/day | TD50 (strain Fischer 344, males, inhaled, site: subcutaneous tissue, lesion: fibroma, dosed 102 weeks, study length 104 weeks): 2180 mg/kg/day | TD50 (strain Fischer 344, males, inhaled, site: tunica vaginalis, lesion: mesothelioma, NOS + mesothelioma, malignant, dosed 102 weeks, study length 104 weeks): 1640 mg/kg/day | TD50 (strain Fischer 344, males, inhaled, site: tunica vaginalis, lesion: mesothelioma, malignant, dosed 102 weeks, study length 104 weeks): 4310 mg/kg/day | TD50 (strain Sprague-Dawley Spartan, females, inhaled, site: liver, lesion: Kupffer-cell sarcoma, dosed 104 weeks, study length 104 weeks): 9340 mg/kg/day (inactive) | carcinogen call (strain Sprague-Dawley Spartan, females, inhaled, site: liver, lesion: hepatocellular carcinoma, dosed 52 weeks, study length 104 weeks): negative (inactive) | TD50 (strain Sprague-Dawley Spartan, females, inhaled, site: liver, lesion: hepatocellular carcinoma, dosed 104 weeks, study length 104 weeks): 9520 mg/kg/day (inactive) | carcinogen call (strain Sprague-Dawley Spartan, females, inhaled, site: liver, lesion: neoplastic nodule, dosed 52 weeks, study length 104 weeks): negative (inactive) | carcinogen call (strain Sprague-Dawley Spartan, females, inhaled, site: liver, lesion: neoplastic nodule, dosed 104 weeks, study length 104 weeks): negative (inactive) | TD50 (strain Sprague-Dawley Spartan, females, inhaled, site: mammary gland, lesion: adenocarcinoma, dosed 52 weeks, study length 104 weeks): 1140 mg/kg/day (inactive) | carcinogen call (strain Sprague-Dawley Spartan, females, inhaled, site: mammary gland, lesion: adenocarcinoma, dosed 104 weeks, study length 104 weeks): negative (inactive) | TD50 (strain Sprague-Dawley Spartan, females, inhaled, site: mammary gland, lesion: benign tumor, dosed 52 weeks, study length 104 weeks): 38.1 mg/kg/day | TD50 (strain Sprague-Dawley Spartan, females, inhaled, site: mammary gland, lesion: benign tumor, dosed 104 weeks, study length 104 weeks): 4430 mg/kg/day and 1550 mg/kg/day | TD50 (strain Sprague-Dawley Spartan, females, inhaled, site: mammary gland, lesion: fibroadenoma, dosed 52 weeks, study length 104 weeks): 37.7 mg/kg/day | TD50 (strain Sprague-Dawley Spartan, females, inhaled, site: mammary gland, lesion: fibroadenoma, dosed 104 weeks, study length 104 weeks): 631 mg/kg/day | carcinogen call (strain Sprague-Dawley Spartan, males, inhaled, site: liver, lesion: one or several types, types not named, dosed 86 weeks, study length 86 weeks): negative (inactive) | TD50 (strain Sprague-Dawley Spartan, males, inhaled, site: mammary gland, lesion: benign tumor, dosed 104 weeks, study length 104 weeks): 5080 mg/kg/day | TD50 (strain Sprague-Dawley Spartan, males, inhaled, site: salivary gland, lesion: several types, types named in the paper, dosed 104 weeks, study length 104 weeks): 4260 mg/kg/day | TD50 (strain Sprague-Dawley, females, by gavage, site: any site (literature study), lesion: malignant tumor, dosed 64 weeks, study length 104 weeks): 1740 mg/kg/day | TD50 (strain Sprague-Dawley, females, by gavage, site: mammary tissue, wider than the gland, lesion: malignant tumor, dosed 64 weeks, study length 104 weeks): 1130 mg/kg/day | TD50 (strain Sprague-Dawley, females, by gavage, site: mammary tissue, wider than the gland, lesion: several types, types named in the paper, dosed 64 weeks, study length 104 weeks): 1030 mg/kg/day | TD50 (strain Sprague-Dawley, females, inhaled, site: any site (literature study), lesion: malignant tumor, dosed 104 weeks, study length 104 weeks): 477 mg/kg/day | TD50 (strain Sprague-Dawley, females, inhaled, site: any site (literature study), lesion: several types, types named in the paper, dosed 104 weeks, study length 104 weeks): 32.1 mg/kg/day | TD50 (strain Sprague-Dawley, females, inhaled, site: mammary tissue, wider than the gland, lesion: several types, types named in the paper, dosed 104 weeks, study length 104 weeks): 37.8 mg/kg/day | TD50 (strain Sprague-Dawley, males, by gavage, site: any site (literature study), lesion: malignant tumor, dosed 64 weeks, study length 104 weeks): 935 mg/kg/day
